Measured values: publication PMC12416277, “Phytochemical alkaloids orchestrate immunometabolism against viral infections” (National Science Review, 2025)

Assays:
NPC1 = target: T1, NPC1 (Homo sapiens, UniProt O15118); assay: Bio-Tet streptavidin pull-down from cell lysates; type: binding
T1 sequence (O15118 23-1278): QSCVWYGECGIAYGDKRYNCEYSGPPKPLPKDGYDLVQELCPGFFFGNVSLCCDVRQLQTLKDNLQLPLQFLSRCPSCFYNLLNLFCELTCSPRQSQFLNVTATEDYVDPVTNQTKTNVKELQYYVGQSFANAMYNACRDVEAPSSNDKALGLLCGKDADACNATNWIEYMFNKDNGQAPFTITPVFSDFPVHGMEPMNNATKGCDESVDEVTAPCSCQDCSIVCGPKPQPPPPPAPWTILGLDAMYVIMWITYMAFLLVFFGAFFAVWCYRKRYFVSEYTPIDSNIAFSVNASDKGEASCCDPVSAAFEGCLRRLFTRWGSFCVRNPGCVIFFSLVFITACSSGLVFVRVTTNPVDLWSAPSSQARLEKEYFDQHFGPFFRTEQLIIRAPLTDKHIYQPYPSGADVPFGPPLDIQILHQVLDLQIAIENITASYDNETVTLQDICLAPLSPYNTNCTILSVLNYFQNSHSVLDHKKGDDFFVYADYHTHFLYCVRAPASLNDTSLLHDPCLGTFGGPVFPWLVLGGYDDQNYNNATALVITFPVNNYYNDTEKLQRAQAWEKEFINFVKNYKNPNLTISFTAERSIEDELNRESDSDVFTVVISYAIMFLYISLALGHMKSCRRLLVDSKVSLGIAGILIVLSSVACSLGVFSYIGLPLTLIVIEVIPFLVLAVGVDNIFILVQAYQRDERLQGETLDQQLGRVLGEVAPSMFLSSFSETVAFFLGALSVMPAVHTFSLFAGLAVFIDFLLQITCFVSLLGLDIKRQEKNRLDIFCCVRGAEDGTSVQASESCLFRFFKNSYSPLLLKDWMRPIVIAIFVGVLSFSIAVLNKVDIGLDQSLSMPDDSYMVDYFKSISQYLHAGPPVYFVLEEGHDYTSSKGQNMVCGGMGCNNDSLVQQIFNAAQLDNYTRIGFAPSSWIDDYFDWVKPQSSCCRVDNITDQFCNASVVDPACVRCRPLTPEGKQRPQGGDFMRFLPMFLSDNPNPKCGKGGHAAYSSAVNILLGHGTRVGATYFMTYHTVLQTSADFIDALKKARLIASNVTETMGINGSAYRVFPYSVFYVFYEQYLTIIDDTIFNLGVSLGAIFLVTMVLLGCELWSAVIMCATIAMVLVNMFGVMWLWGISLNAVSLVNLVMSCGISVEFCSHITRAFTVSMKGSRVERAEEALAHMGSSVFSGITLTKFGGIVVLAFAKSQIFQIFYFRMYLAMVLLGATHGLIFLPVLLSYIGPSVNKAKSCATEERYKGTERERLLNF

VSV = type: in vivo, C57/BL6J mice; conditions: mice
[1] = system: STING-dependent antiviral immune pathway; type: cell-based

Compound: COc1ccc2cc1Oc1ccc(cc1)C[C@H]1c3cc(c(OC)cc3CCN1C)Oc1c(OC)c(OC)cc3c1[C@H](C2)N(C)CC3 [Tet, tetrandrine]
- competition of Bio-Tet/NPC1 interaction (NPC1): competitively inhibited
- IL-6 level in serum (VSV; VSV infection): markedly decreased
- TNF-α level in serum (VSV; VSV infection): markedly decreased
- VSV-G protein expression in lungs and spleens (VSV; VSV infection): inhibited
- lung pathology (H&E) (VSV; VSV infection): reduced lung pathology and cellular infiltrations
- reduction of VSV genome copies in liver, lung, and spleen tissues (VSV; intraperitoneal and intragastric, 10–60 mg/kg, 24 hours pre-VSV infection): 0.5–1 log₁₀
- IFNB1 and ISGs gene expression [1]: significantly increased
